{"source": "paper PMC9959048", "about": "“Lipidation of Naturally Occurring α-Helical Antimicrobial Peptides as a Promising Strategy for Drug Design” (International Journal of Molecular Sciences, 2023)", "key": {"[1]": {"assay": "Dynamic light scattering of lipopeptide assemblies", "format": "physicochemical", "details": "DLS, sonicated 10 min, incubated 1 h, 90° side scatter", "experimental": "The hydrodynamic diameters of the lipopeptide nanoaggregates were examined by the Litesizer 500 (Anton-Paar GmbH, Graz, Austria) at 25 °C. The measurements were carried out at various lipopeptide concentrations ranging from 0.5 to 2 mM and from 0.25 to 2 mM, in water and PBS, respectively. Two-fold serial dilutions were used to obtain the sequential concentrations. Each sample was sonicated for 10 min followed by incubation for 1 h at 25 °C and transferred to the polystyrene cuvette. The detector was positioned at a side scatter position (90°). The analysis of the obtained results and report generation was performed with KalliopeTM software (Anton-Paar GmbH, Graz, Austria)."}, "S. aureus cells": {"system": "S. aureus cells", "assay": "CD, α-helix content in the presence of S. aureus cells", "format": "physicochemical, Staphylococcus aureus", "details": "for α-Helix percentage, Staphylococcus aureus: peptide 0.15 mg/mL, phosphate buffer 10 mM pH 7.0, 2 h incubation", "experimental": "CD experiments were carried out at 25 °C using a Jasco J-815 spectropolarimeter in the wavelength range 185–260 nm. The concentration of the lipopeptides was 0.15 mg/mL. The CD spectra were recorded in water, PBS (pH 7.4), 1.3 mM POPC and 1.3 mM POPG. The results are plotted as the mean molar ellipticity per one amino acid residue (MRME, deg cm^2 dmol^−1) as a function of the wavelength (nm). Additionally, we performed a conformational analysis of the selected compounds in the presence of S. aureus cells. […] The mixtures were then incubated for 2 h before recording the CD spectra.\nThe percentage of the α-helical structure was calculated based on the mean molar ellipticity at 222 nm using the formula: fH=θ222−3000/−36000−3000·100% where θ222 corresponds to the value of the mean molar ellipticity at a wavelength of 222 nm."}, "E. coli PCM2057": {"system": "E. coli PCM2057", "format": "cell-based, Escherichia coli", "details": "PCM2057, 24 h", "method_in_brief": "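Absorbance at 600 nm after 24 h incubation defines growth, with inhibition expressed as % of peptide-free inoculated wells and medium-only wells as 0%. Serial micro-dilution followed CLSI methods for aerobic bacteria (MHB, 37 °C) and yeasts (RPMI-1640–MOPS, 2% glucose, 35 °C).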"}}, "note": "Residues, ends and D or L forms follow the SMILES beside them. *: point of attachment. Octanoyl = CCCCCCCC(=O)*"}
{"smiles": "CCCCCCCC(=O)N[C@H](C(=O)N[C@@H](CCCCN)C(=O)N[C@@H](CCCCN)C(=O)N[C@H](C(=O)N[C@@H](CC(C)C)C(=O)N[C@@H](CO)C(=O)N[C@@H](CCCCN)C(=O)N[C@H](C(=O)N[C@@H](CCCCN)C(=O)N[C@@H](CCCCN)C(=O)N[C@@H](CC(C)C)C(=O)N[C@@H](CC(C)C)C(=O)N[C@@H](CCCCN)C(N)=O)[C@@H](C)CC)[C@@H](C)CC)[C@@H](C)CC", "note": "[C8-LK6] (Octanoyl-IKKILSKIKKLLK-NH2)", "values": [{"measurement": "hydrodynamic diameter, peak of highest scattering intensity", "setting": "[1]; 0.25 mM in PBS pH 7.4, 25 °C", "value": "2596 ± 512", "unit": "nm"}, {"measurement": "hydrodynamic diameter, peak of highest scattering intensity", "setting": "[1]; 0.5 mM salt-free aqueous solution, 25 °C", "value": "327 ± 102", "unit": "nm"}, {"measurement": "hydrodynamic diameter", "setting": "[1]; 2 mM in PBS pH 7.4, 25 °C", "value": "3047 ± 750", "unit": "nm"}, {"measurement": "θ222/θ208, Staphylococcus aureus", "setting": "S. aureus cells; OD0.1 bacterial suspension", "value": 1.26}, {"measurement": "α-Helix percentage, Staphylococcus aureus", "setting": "S. aureus cells; OD0.1 bacterial suspension", "value": 22, "unit": "%"}, {"measurement": "θ222/θ208, Staphylococcus aureus", "setting": "S. aureus cells; OD0.2 bacterial suspension", "value": 0.89}, {"measurement": "α-Helix percentage, Staphylococcus aureus", "setting": "S. aureus cells; OD0.2 bacterial suspension", "value": 17, "unit": "%"}, {"measurement": "θ222/θ208, Staphylococcus aureus", "setting": "S. aureus cells; OD0.5 bacterial suspension", "value": 0.88}, {"measurement": "α-Helix percentage, Staphylococcus aureus", "setting": "S. aureus cells; OD0.5 bacterial suspension", "value": 18, "unit": "%"}, {"measurement": "α-helical structure in the presence of bacterial cells", "setting": "S. aureus cells; S. aureus, various bacterial cell counts of the inoculum", "value": "17–22%"}, {"measurement": "MIC, E. coli PCM2057", "setting": "E. coli PCM2057", "value": ">50", "unit": "µg/mL"}]}
